Results as given in article PMC7596181 (Frontiers in Immunology, 2020).

How the values were obtained:
Assay type in all cases: cell-based
human TLR4 [1] = target: T1, human TLR4 (Homo sapiens, UniProt O00206+Q9Y6Y9); experiment: Mixed agonist-antagonist dose curves at fixed ratio, human TLR4 HEK-Blue SEAP; set-up: host or cells: HEK-Blue (HEK293-derived) reporter cells
Procedure: (§1) SEAP assays were performed to evaluate the extent to which TLR4 signaling was activated in HEK-Blue reporter cells expressing mouse or human receptors (CD14, MD2 and TLR4). Reporter cells were harvested when 70–80% confluent and plated in 96-well, flat-bottom microtiter plates either 1 h, one day or two days (5 × 10^4, 4 × 10^4 or 2 × 10^4 cells/well, respectively) before addition of TLR4 agonists for 18–24 h. Culture supernatants were transferred to U-bottom microtiter plates, centrifuged and transferred again to microtiter plates to ensure reporter cells were not present. The culture supernatants were added to QUANTI-BLUE substrate following instructions provided by the manufacturer (InvivoGen cat. nos. rep-qbl or rep-qbs) and incubated at 37°C in a tissue culture incubator. At successive intervals beginning 10 min after mixing the supernatants and substrate, the plates were placed in an Emax plate reader (Molecular Devices LLC) and optical density was measured at visible light wavelength […] (OD650). The shortest incubations at which dose response curve fits produced maximal R^2 ‘goodness of fit’ values, as determined by GraphPad Prism software, were used for analysis.
Pharmacological profiles of the TLR4 reagents were generated by performing dose response curves in one of four formats. 1) Agonist potency and efficacy (EC50 and height of dose plateau, respectively) were measured by diluting TLR4 reagents successively in complete culture medium [DMEM or RPMI supplemented with fetal bovine serum (FBS) or RPMI supplemented with human serum, depending on cell-type]. Half-log step dilutions were performed in 96-well, U-bottom microtiter plates using a multichannel pipette to transfer and mix the suspensions, with fresh tips used for each dilution step. One-tenth (20 μl) volumes from wells of the dilution plate were then transferred to wells containing cells that had been plated in nine-tenth volumes (180 μl) of culture medium. 2) Mixed agonist–antagonist potency and efficacy were measured by mixing a TLR4 agonist with a candidate antagonist at a fixed ratio and then performing half-log step dilutions before treating HEK reporter cells. Analysis of values obtained from SEAP assays of culture supernatants was then performed as described for preparations containing agonist alone, above. 3) Competitive vs allosteric or non-competitive antagonist type was evaluated by diluting a reference agonist within a fixed concentration of a candidate inhibitor in half-log steps, treating HEK reporter cells, performing SEAP assays and then analyzing the data as described for agonist assays, above. Competitive antagonists are characterized by values that reach the same dose plateau as for a reference, full agonist, while shifting potency to higher EC50 values. […] 4) Inhibitory potency (IC50) was measured by diluting antagonists within a fixed concentration of a reference agonist, treating HEK reporter cells and performing SEAP assays as described.

human TLR4 [2] = target: T1, human TLR4; experiment: Competitive vs non-competitive antagonist type: agonist diluted in a fixed concentration of inhibitor, human TLR4 HEK-Blue SEAP; set-up: host or cells: HEK-Blue (HEK293-derived) reporter cells; conditions: fixed ML3 3 μM, ML4A 3 μM or Lipid IVa 0.1 μM; agonist PHAD or 3D-6A-PHAD diluted from 10 μM
Procedure: as §1
Pharmacological profiles of the TLR4 reagents were generated by performing dose response curves in one of four formats. 1) Agonist potency and efficacy (EC50 and height of dose plateau, respectively) were measured by diluting TLR4 reagents successively in complete culture medium [DMEM or RPMI supplemented with fetal bovine serum (FBS) or RPMI supplemented with human serum, depending on cell-type]. […] 2) Mixed agonist–antagonist potency and efficacy were measured by mixing a TLR4 agonist with a candidate antagonist at a fixed ratio and then performing half-log step dilutions before treating HEK reporter cells. […] 4) Inhibitory potency (IC50) was measured by diluting antagonists within a fixed concentration of a reference agonist, treating HEK reporter cells and performing SEAP assays as described.

human THP-1 cells = experiment: TNFα secretion (ELISA) by THP-1 cells; conditions: THP-1, PMA-treated, 18-24 h
Procedure: (§2) Human and mouse HEK-Blue reporter cells express human or mouse CD14, MD2, and TLR4 and secreted embryonic alkaline phosphatase (SEAP) under control of a promoter with binding sites for NFκB and AP-1 transcription factors (InvivoGen cat. nos. hkb-htlr4 and hkb-mtlr4). Cells were cultured as directed by the supplier, with the exception that Glutamax (ThermoFisher cat. no. 10569010) was used in place of L-glutamine, and TrypLE Express (ThermoFisher cat. no. 12605010) was used to release adherent cells for each passage. […]
(§3) ELISA was performed to measure TNFα secretion by cell-lines and primary cells exposed to TLR4 reagents as a measure of receptor activation. […] Human or mouse TNα was quantified using ELISA kits as directed by the kit supplier (eBioscience cat. nos. 88-7324-77 and 88-7324-88, respectively) using an Emax plate reader and SoftMax Pro analytical software (Molecular Devices, LLC). […]
(§4) Pharmacological profiles of the TLR4 reagents were generated by performing dose response curves in one of four formats. 1) Agonist potency and efficacy (EC50 and height of dose plateau, respectively) were measured by diluting TLR4 reagents successively in complete culture medium [DMEM or RPMI supplemented with fetal bovine serum (FBS) or RPMI supplemented with human serum, depending on cell-type]. […]

mouse RAW264.7 cells = experiment: TNFα secretion (ELISA) by RAW264.7 cells; conditions: RAW264.7, 18-24 h
Procedure: as §2, §3, §4

[3] = mixed with 3D-6A-PHAD at 5:1 antagonist:agonist
[4] = mixed with PHAD, ML4A up to 30:1 and 60:1 antagonist:agonist

T1 sequence (O00206 24-839): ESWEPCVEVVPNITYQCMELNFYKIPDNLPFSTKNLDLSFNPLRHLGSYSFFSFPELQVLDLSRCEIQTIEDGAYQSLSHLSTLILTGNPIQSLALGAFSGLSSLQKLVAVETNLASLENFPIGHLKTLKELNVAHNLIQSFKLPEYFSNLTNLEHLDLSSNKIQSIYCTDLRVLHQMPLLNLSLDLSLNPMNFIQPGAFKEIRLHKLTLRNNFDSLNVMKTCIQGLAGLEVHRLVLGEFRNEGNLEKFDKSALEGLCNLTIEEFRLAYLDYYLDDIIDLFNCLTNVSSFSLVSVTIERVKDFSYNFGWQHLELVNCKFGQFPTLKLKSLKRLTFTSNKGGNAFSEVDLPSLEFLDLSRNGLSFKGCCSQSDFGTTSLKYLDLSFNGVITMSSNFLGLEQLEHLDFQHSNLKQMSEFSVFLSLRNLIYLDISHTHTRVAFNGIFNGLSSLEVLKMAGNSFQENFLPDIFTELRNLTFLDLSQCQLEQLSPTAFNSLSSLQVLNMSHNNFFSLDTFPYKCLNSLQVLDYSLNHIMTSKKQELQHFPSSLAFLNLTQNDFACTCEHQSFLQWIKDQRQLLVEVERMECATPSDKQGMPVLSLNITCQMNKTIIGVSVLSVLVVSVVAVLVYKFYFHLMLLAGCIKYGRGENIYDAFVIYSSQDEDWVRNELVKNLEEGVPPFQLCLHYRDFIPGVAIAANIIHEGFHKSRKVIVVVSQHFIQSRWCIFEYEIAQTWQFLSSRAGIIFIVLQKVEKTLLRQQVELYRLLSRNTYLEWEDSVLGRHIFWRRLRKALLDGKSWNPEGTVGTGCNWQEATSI
T1 sequence (Q9Y6Y9 17-160 limits assumed): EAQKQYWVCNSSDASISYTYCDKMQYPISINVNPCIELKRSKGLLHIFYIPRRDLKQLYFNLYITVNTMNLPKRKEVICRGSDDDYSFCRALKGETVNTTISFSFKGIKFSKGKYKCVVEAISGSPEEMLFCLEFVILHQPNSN

effect on agonist dose curve in fixed-ratio mixture (human TLR4 [1]; [3]) | antagonist type (human TLR4 [2]) | Compound | effect on agonist dose curve in fixed-ratio mixture (human TLR4 [1]; [4]) | agonist profile, TNFα production (human THP-1 cells) | agonist profile, TNFα production (mouse RAW264.7 cells)
appeared to limit its activity | competitive antagonists of human TLR4 | CCCCCCCCCCCC(=O)OC(CCCCCCCCCCC)CC(=O)NC1C(OCC2OC(O)C(NC(=O)CC(O)CCCCCCCCCCC)C(O)C2O)OC(CO)C(OP(=O)(O)O)C1OC(=O)CC(O)CCCCCCCCCCC (stereo not shown) [ML4A] | very modestly reduced TLR4 stimulatory activity |  | 
 |  | CCCCCCCCCCCCCCCC(=O)OC(CCCCCCCCCCC)CC(=O)NC1C(O)OC(COC2OC(CO)C(OP(=O)(O)O)C(O)C2NC(=O)CC(CCCCCCCCCCC)OC(=O)CCCCCCCCCCC)C(O)C1O (stereo not shown) [ML4B] |  | largely inactive | largely inactive
appeared to limit its activity | competitive antagonists of human TLR4 | CCCCCCCCCCCC(=O)OC(CCCCCCCCCCC)CC(=O)NC1C(OCC2OC(O)C(NC(=O)CC(O)CCCCCCCCCCC)C(O)C2O)OC(CO)C(OP(=O)(O)O)C1O (stereo not shown) [ML3] | very modestly reduced TLR4 stimulatory activity | largely inactive | largely inactive
